Results as given in patent publication US12668594B2, “TYK2 inhibitors and uses thereof” (Sudo Biosciences Limited, priority 2020, dated 2026).

Key:
TYK2 [1] = molecular target: T1, TYK2 (Homo sapiens, UniProt P29597); assay: HEK-Blue IFNα/β reporter assay (SEAP) for TYK2 pseudokinase inhibition; assay type: cell-based; conditions: HEK-Blue IFNα/β cells, 1 ng/mL human recombinant IFNα
Experimental: (§1) HEK-Blue™ IL-23 and IFNα/β cells with a stably-integrated cytokine receptor and STAT3 or STAT1 express STAT-inducible secreted embryonic alkaline phosphatase (SEAP) reporter gene upon cytokine stimulation. These cells are plated in DMVEM (Gibco) containing 10% heat-inactivated FBS (Gibco) and 100 U/mL PenStrep (Gibco) at 37° C. under […] conditions for 20-22 hours. The cells are then pretreated with serially diluted test compounds for 60 min prior to stimulation with either 10 ng/mL human recombinant IL-23 (Miltenyl Biotech) or 1 ng/mL human recombinant IFNα (InvivoGen) for 22-24 hours for IL-23 or 16-18 h for IFNα. SEAP induction is measured using the QUANTI Blue™ Solution (InvivoGen) according to the manufacturer's instructions. Inhibition data are calculated by comparison to no inhibitor control wells for 000 inhibition and non-stimulated control wells for 10000 inhibition. Dose response curves are generated to determine the concentration required to inhibit 5000 of cellular response (IC50) as derived by non-linear regression analysis.

TYK2 [2] = molecular target: T1, TYK2; assay: HEK-Blue IL-23 reporter assay (SEAP) for TYK2 pseudokinase inhibition; assay type: cell-based; set-up: HEK-Blue™ IL-23 and IFNα/β cells with a stably-integrated cytokine receptor and STAT3 or STAT1; host or cells: HEK-Blue IL-23 / HEK-Blue IFNα/β cells (HEK293 background); conditions: HEK-Blue IL-23 cells, 10 ng/mL human recombinant IL-23, SEAP reporter; read-out: IL23 IC50
Experimental: as §1

T1 sequence (P29597 whole entry): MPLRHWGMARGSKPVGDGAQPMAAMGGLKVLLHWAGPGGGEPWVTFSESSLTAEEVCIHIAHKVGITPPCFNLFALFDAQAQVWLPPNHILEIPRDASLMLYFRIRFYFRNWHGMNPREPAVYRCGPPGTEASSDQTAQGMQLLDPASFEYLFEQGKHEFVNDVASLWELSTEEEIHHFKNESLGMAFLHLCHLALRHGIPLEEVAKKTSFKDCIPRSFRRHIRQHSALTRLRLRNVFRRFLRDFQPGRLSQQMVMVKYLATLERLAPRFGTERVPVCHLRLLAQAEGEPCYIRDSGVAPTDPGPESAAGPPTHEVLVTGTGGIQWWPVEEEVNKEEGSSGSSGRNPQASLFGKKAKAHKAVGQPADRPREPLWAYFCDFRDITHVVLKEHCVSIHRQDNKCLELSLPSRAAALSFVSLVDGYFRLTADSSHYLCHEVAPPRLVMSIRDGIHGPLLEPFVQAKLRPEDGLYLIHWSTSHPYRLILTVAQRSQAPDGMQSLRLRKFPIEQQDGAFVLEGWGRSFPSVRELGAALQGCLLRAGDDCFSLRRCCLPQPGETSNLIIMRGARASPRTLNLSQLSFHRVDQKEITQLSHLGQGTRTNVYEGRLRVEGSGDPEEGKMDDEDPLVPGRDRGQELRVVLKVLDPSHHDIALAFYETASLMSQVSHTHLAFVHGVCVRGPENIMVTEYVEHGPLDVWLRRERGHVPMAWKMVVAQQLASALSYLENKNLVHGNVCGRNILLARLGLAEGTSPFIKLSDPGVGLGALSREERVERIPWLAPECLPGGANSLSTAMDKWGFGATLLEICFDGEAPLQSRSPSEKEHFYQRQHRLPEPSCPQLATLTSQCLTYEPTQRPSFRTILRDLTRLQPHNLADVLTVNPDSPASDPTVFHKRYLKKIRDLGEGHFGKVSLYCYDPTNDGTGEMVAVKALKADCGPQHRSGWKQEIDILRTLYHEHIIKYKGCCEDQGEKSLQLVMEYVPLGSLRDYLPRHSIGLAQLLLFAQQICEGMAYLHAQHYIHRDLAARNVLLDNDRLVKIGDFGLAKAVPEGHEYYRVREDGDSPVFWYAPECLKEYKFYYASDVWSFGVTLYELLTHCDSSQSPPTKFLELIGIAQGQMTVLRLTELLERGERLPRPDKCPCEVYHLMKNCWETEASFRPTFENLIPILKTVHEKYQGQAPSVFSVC

SMILES | IC50 (TYK2 [1]) [µM] | IC50 (TYK2 [2]) [µM]
O=c1[nH]n(-c2cccc(OC(F)(F)F)c2)c2cc(Nc3ccc(F)cn3)ncc12 [Compound I-56, 6-((5-fluoropyridin-2-yl)amino)-1-(3-(trifluoromethoxy)phenyl)-1,2-dihydro-3H-pyrazolo[4,3-c]pyridin-3-one] | 10 to 30 | < 10
CS(=O)(=O)c1ccc(-n2[nH]c(=O)c3cnc(Nc4ccc(F)cn4)cc32)cc1 [Compound I-62, 6-((5-fluoropyridin-2-yl)amino)-1-(4-(methylsulfonyl)phenyl)-1,2-dihydro-3H-pyrazolo[4,3-c]pyridin-3-one] | 30 to 90 | < 10
O=C(Nc1cc2c(cn1)c(=O)[nH]n2-c1ccc(OC(F)(F)F)cc1)C1CC1 [Compound I-71, N-(3-oxo-1-(4-(trifluoromethoxy)phenyl)-2,3-dihydro-1H-pyrazolo[4,3-c]pyridin-6-yl)cyclopropanecarboxamide] | < 10 | < 10
COC(=O)c1ccc(-n2[nH]c(=O)c3cnc(Nc4cc(C)nc(C)n4)cc32)cc1 [Compound I-74, methyl 4-(6-((2,6-dimethylpyrimidin-4-yl)amino)-3-oxo-2,3-dihydro-1H-pyrazolo[4,3-c]pyridin-1-yl)benzoate] | < 10 | < 10
COC(=O)c1ccc(-n2[nH]c(=O)c3cnc(Nc4ccc(F)cn4)cc32)cc1 [Compound I-75, methyl 4-(6-((5-fluoropyridin-2-yl)amino)-3-oxo-2,3-dihydro-1H-pyrazolo[4,3-c]pyridin-1-yl)benzoate] | < 10 | < 10
COc1cc(-n2[nH]c(=O)c3cnc(Nc4cc(C)nc(C)n4)cc32)ccc1F [Compound I-76, 6-((2,6-dimethylpyrimidin-4-yl)amino)-1-(4-fluoro-3-methoxyphenyl)-1,2-dihydro-3H-pyrazolo[4,3-c]pyridin-3-one] | < 10 | < 10
COc1cc(-n2[nH]c(=O)c3cnc(Nc4ccc(F)cn4)cc32)ccc1F [Compound I-77, 1-(4-fluoro-3-methoxyphenyl)-6-((5-fluoropyridin-2-yl)amino)-1,2-dihydro-3H-pyrazolo[4,3-c]pyridin-3-one] | < 10 | < 10
COc1cc(-n2[nH]c(=O)c3cnc(Nc4cc(C)nc(C)n4)cc32)ccc1Cl [Compound I-78, 1-(4-chloro-3-methoxyphenyl)-6-((2,6-dimethylpyrimidin-4-yl)amino)-1,2-dihydro-3H-pyrazolo[4,3-c]pyridin-3-one] | > 90 | > 90
COc1cc(-n2[nH]c(=O)c3cnc(Nc4ccc(F)cn4)cc32)ccc1Cl [Compound I-79, 1-(4-chloro-3-methoxyphenyl)-6-((5-fluoropyridin-2-yl)amino)-1,2-dihydro-3H-pyrazolo[4,3-c]pyridin-3-one] | > 90 | > 90
COc1cc(-n2[nH]c(=O)c3cnc(Nc4cc(C)nc(C)n4)cc32)ccc1C#N [Compound I-80, 4-(6-((2,6-dimethylpyrimidin-4-yl)amino)-3-oxo-2,3-dihydro-1H-pyrazolo[4,3-c]pyridin-1-yl)-2-methoxybenzonitrile] | > 90 | < 10
COc1cc(-n2[nH]c(=O)c3cnc(Nc4ccc(F)cn4)cc32)ccc1C#N [Compound I-81, 4-(6-((5-fluoropyridin-2-yl)amino)-3-oxo-2,3-dihydro-1H-pyrazolo[4,3-c]pyridin-1-yl)-2-methoxybenzonitrile] | > 90 | < 10

The remaining lines, values ahead:

IC50 (TYK2 [1]) [µM] | IC50 (TYK2 [2]) [µM] | SMILES
< 10 | < 10 | COc1cccc(-n2[nH]c(=O)c3cnc(Nc4cnccn4)cc32)c1 [Compound I-53, 1-(3-methoxyphenyl)-6-(pyrazin-2-ylamino)-1,2-dihydro-3H-pyrazolo[4,3-c]pyridin-3-one]
< 10 | < 10 | COc1cccc(-n2[nH]c(=O)c3cnc(NC(=O)C4CC4)cc32)c1 [Compound I-54, N-(1-(3-methoxyphenyl)-3-oxo-2,3-dihydro-1H-pyrazolo[4,3-c]pyridin-6-yl)cyclopropanecarboxamide]
< 10 | < 10 | O=C(Nc1cc2c(cn1)c(=O)[nH]n2-c1cccc(OC(F)(F)F)c1)C1CC1 [Compound I-55, N-(3-oxo-1-(3-(trifluoromethoxy)phenyl)-2,3-dihydro-1H-pyrazolo[4,3-c]pyridin-6-yl)cyclopropanecarboxamide]
< 10 | < 10 | Cc1cc(Nc2cc3c(cn2)c(=O)[nH]n3-c2cccc(C(F)(F)F)c2)nc(C)n1 [Compound I-57, 6-((2,6-dimethylpyrimidin-4-yl)amino)-1-(3-(trifluoromethyl)phenyl)-1,2-dihydro-3H-pyrazolo[4,3-c]pyridin-3-one]
< 10 | < 10 | O=C(Nc1cc2c(cn1)c(=O)[nH]n2-c1cccc(C(F)(F)F)c1)C1CC1 [Compound I-58, N-(3-oxo-1-(3-(trifluoromethyl)phenyl)-2,3-dihydro-1H-pyrazolo[4,3-c]pyridin-6-yl)cyclopropanecarboxamide]
< 10 | > 90 | O=c1[nH]n(-c2cccc(F)c2)c2cc(Nc3ccc(F)cn3)ncc12 [Compound I-60, 1-(3-fluorophenyl)-6-((5-fluoropyridin-2-yl)amino)-1,2-dihydro-3H-pyrazolo[4,3-c]pyridin-3-one]
< 10 | < 10 | O=C(Nc1cc2c(cn1)c(=O)[nH]n2-c1cccc(F)c1)C1CC1 [Compound I-61, N-(1-(3-fluorophenyl)-3-oxo-2,3-dihydro-1H-pyrazolo[4,3-c]pyridin-6-yl)cyclopropanecarboxamide]
< 10 | < 10 | Cc1cc(Nc2cc3c(cn2)c(=O)[nH]n3-c2ccc(C#N)cc2)nc(C)n1 [Compound I-63, 4-(6-((2,6-dimethylpyrimidin-4-yl)amino)-3-oxo-2,3-dihydro-1H-pyrazolo[4,3-c]pyridin-1-yl)benzonitrile]
< 10 | < 10 | N#Cc1ccc(-n2[nH]c(=O)c3cnc(Nc4ccc(F)cn4)cc32)cc1 [Compound I-64, 4-(6-((5-fluoropyridin-2-yl)amino)-3-oxo-2,3-dihydro-1H-pyrazolo[4,3-c]pyridin-1-yl)benzonitrile]
< 10 | < 10 | Cc1cc(Nc2cc3c(cn2)c(=O)[nH]n3-c2ccc(C(F)(F)F)cc2)nc(C)n1 [Compound I-66, 6-((2,6-dimethylpyrimidin-4-yl)amino)-1-(4-(trifluoromethyl)phenyl)-1,2-dihydro-3H-pyrazolo[4,3-c]pyridin-3-one]
< 10 | < 10 | O=c1[nH]n(-c2ccc(C(F)(F)F)cc2)c2cc(Nc3ccc(F)cn3)ncc12 [Compound I-67, 6-((5-fluoropyridin-2-yl)amino)-1-(4-(trifluoromethyl)phenyl)-1,2-dihydro-3H-pyrazolo[4,3-c]pyridin-3-one]
< 10 | < 10 | O=C(Nc1cc2c(cn1)c(=O)[nH]n2-c1ccc(C(F)(F)F)cc1)C1CC1 [Compound I-68, N-(3-oxo-1-(4-(trifluoromethyl)phenyl)-2,3-dihydro-1H-pyrazolo[4,3-c]pyridin-6-yl)cyclopropanecarboxamide]
< 10 | < 10 | O=c1[nH]n(-c2ccc(OC(F)(F)F)cc2)c2cc(Nc3ccc(F)cn3)ncc12 [Compound I-70, 6-((5-fluoropyridin-2-yl)amino)-1-(4-(trifluoromethoxy)phenyl)-1,2-dihydro-3H-pyrazolo[4,3-c]pyridin-3-one]
